Tests used:
[1] = In vivo absorption of SCFA in the blood (Example 3); set-up: species or system pig
Protocol: In this pig study the in vivo absorption of SCFA in the blood is measured by taking blood samples simultaneously from 3 catheters in Vena Mesenterica, Ateria mesenterica and Vena Porta over a 12 hour period after the morning feeding. The absorption is measured in the same 5 pigs at 3 different occasions, that is after 7 days adaptation to standard pig diet+20% sucrose (sucrose), the first day of switching to a standard pig diet+20% D-tagatose (unadapted), and after 7 days adaptation to a standard pig diet+20% D-tagatose (adapted). The concentration of SCFA's is determined in samples from the portal vein, that is the blood stream leading from the digestive system to the liver, and in the arterial blood, that is the blood stream before the digestive system. The difference between the two integrated by time is a measure of the intestinal absorption of SCFA's.
The area between the 2 curves is equal to the total absorption of butyrate from the intestine.

[2] = Concentration of butyrate in gastrointestinal sections at slaughtering (Example 2); format: in vivo, pig; settings: pigs, 0, 10 or 20% D-tagatose in diet for 33 days; hind gut (FIG. 1)
Protocol: (§1) In this study, 3 groups of each 2 pigs were having a standard pig diet+20% sucrose, a standard pig diet+10% sucrose+10% D-tagatose, and a standard pig diet+20% D-tagatose for 33 days. The pigs were killed on the 33. day 6 hours after morning feeding, and the entire gastrointestinal tract was divided into 8 segments.
(§2) The concentrations of the various SCFA were measured in the 8 sections immediately after killing, and further the content from the 8 sections was used for 12 hour in vitro incubations at 37° C. and anaerobic conditions. In this in vitro assay no D-tagatose was added, and the fermentation products originate from unabsorbed D-tagatose and other undigestible food components from the diets.

[3] = system: content from the 8 sections; assay: 12 hour in vitro incubation of content from gut sections, no D-tagatose added (Example 2); format: cell-based, pig
Protocol: as §1, §2
The data presented here are normalized to production of SCFA pr kg feed.

[4] = system: intestinal bacteria; assay: Counts of intestinal bacteria in faeces on selective media (Example 4); format: in vivo; settings: human volunteers, 3×10 g D-tagatose pr day for 14 days versus before intake (FIG. 5)
Protocol: (§3) In this study 16 human volunteers deliver a faeces sample before any intake of D-tagatose (unadapted) and another faeces sample after 14 days' intake of 3×10 g of D-tagatose pr day (adapted). The 16 volunteers are on controlled diet 4 days before the delivery of each faeces samples. Faeces slurries, 20%, were incubated at 37° C. and anaerobic conditions for 48 hours with or without 1% D-tagatose added. Samples for determination of SCFA were taken after 4 hours and after 48 hours of incubation. The amount of SCFA produced by D-tagatose is calculated as the amount produced in the assay with 1% D-tagatose added subtracted by the amount produced in the assay without D-tagatose. Further, the delivered faeces samples were tested for content of various intestinal bacteria counts by spreading on selective media.

[5] = system: human faeces; assay: In vitro fermentation of tagatose by incubation of human faeces (Example 4); format: cell-based
Protocol: as §3

[6] = oral; cited from earlier work
[7] = system: colon content; assay: In vitro fermentation of D-tagatose by pig caecum/colon content slurries (Example 1); format: cell-based; settings: for Tagatose degradation: in vitro incubation; for Mole % of SCFA after microbial fermentation of D-Tagatose: Acetate / Mole % of SCFA after microbial fermentation of D-Tagatose: Butyrate / Mole % of SCFA after microbial fermentation of D-Tagatose: Capronate / Mole % of SCFA after microbial fermentation of D-Tagatose: Formate / Mole % of SCFA after microbial fermentation of D-Tagatose: Heptanoate / Mole % of SCFA after microbial fermentation of D-Tagatose: Propionate / Mole % of SCFA after microbial fermentation of D-Tagatose: Valerate: 1% tagatose added, 0–4 h
Protocol: In the study, one group of 8 pigs was having a standard diet+15% sucrose (unadapted), and another group of 8 pigs was fed a standard diet+5% sucrose+10% D-tagatose (adapted) for 17 days.
On the 17. day the pigs were killed 3 hours after the morning feeding, and the entire gastrointestinal tract was sectioned. […] 20% slurries were incubated at 37° C. and anaerobic conditions for 4 hours with or without 1% D-tagatose added. The amount of SCFA produced by D-tagatose is calculated as the amount produced in the assay with 1% D-tagatose added subtracted by the amount produced in the assay without D-tagatose.

[8] = system: human faecal incubations; settings: cited from earlier work; for proportion of butyrate on fermentation: human faecal in vitro system (Mortensen et al. 1988)
[9] = addition of D-tagatose to the diet
[10] = pigs after 7 days of adaptation to 20% D-tagatose diet (FIG. 4)
[11] = normalized pr kg feed, 0, 10 or 20% D-tagatose in diet (FIG. 3)
[12] = 4 hours of incubation, Non-adapted
[13] = 48 hours of incubation, Adapted
[14] = 48 hours of incubation, Non-adapted

## O=C(CO)[C@@H](O)[C@@H](O)[C@H](O)CO [D-tagatose]
[1]; adapted versus unadapted to 20% D-tagatose diet
  total absorption of butyrate (area between portal and arterial curves): does not differ in the adapted and unadapted state
[1]; [9]
  absorption of acetate: not increased
  absorption of propionate: not increased
[1]; [10]
  concentration of butyrate in arterial blood: increasing
  concentration of butyrate in the portal blood: very steep increase a few hours after feeding
[1]; pigs in vivo, 20% D-tagatose diet
  time of adaptation to butyrate production: ≤ 12 h
[1]; pigs unadapted, first day of 20% D-tagatose diet, 12 hours after feeding (FIG. 4)
  butyrate in the portal vein: gradually increasing over the 12 hours of measuring
[2]
  concentration of butyrate in the various gastrointestinal sections at the time of slaughtering: increasing in a dose response manner
[3]; content from gut sections of pigs on 0, 10 or 20% D-tagatose diet (FIG. 2)
  12 hour in vitro production of butyrate: acting in a dose response manner
[3]; [11]
  total 12 hour in vitro production of SCFA in the gut: acetate: not influenced
  total 12 hour in vitro production of SCFA in the gut: butyrate: in a dose response manner promote the microbiological production of butyrate
[4]
  entero-bacteria in faeces: decreased
  number of lactic acid bacteria in faeces: increased in number
  number of lactobacilli in faeces: increased in number
[5]; 4 hours of incubation, Adapted
  Molar Ratios (Mole %) of SCFA's: Acetic acid: 42.1 Mole %
  Molar Ratios (Mole %) of SCFA's: Butyric acid: 34.7 Mole %
  Molar Ratios (Mole %) of SCFA's: Capronic acid: 3.5 Mole %
  Molar Ratios (Mole %) of SCFA's: Formic acid: 5.8 Mole %
  Molar Ratios (Mole %) of SCFA's: Heptanic acid: 0.6 Mole %
  Molar Ratios (Mole %) of SCFA's: Lactic acid: 9.0 Mole %
  Molar Ratios (Mole %) of SCFA's: Propionic acid: 4.1 Mole %
  Molar Ratios (Mole %) of SCFA's: Valeric acid: 1.0 Mole %
  Total SCFA (production mmol/l): 24.3 mmol/L
[5]; [12]
  Molar Ratios (Mole %) of SCFA's: Acetic acid: 62.8 Mole %
  Molar Ratios (Mole %) of SCFA's: Butyric acid: 24.5 Mole %
  Molar Ratios (Mole %) of SCFA's: Capronic acid: 6.7 Mole %
  Molar Ratios (Mole %) of SCFA's: Formic acid: 0.5 Mole %
  Molar Ratios (Mole %) of SCFA's: Heptanic acid: 1.1 Mole %
  Molar Ratios (Mole %) of SCFA's: Lactic acid: 3.9 Mole %
  Molar Ratios (Mole %) of SCFA's: Propionic acid: 0.0 Mole %
  Molar Ratios (Mole %) of SCFA's: Valeric acid: 3.0 Mole %
  Total SCFA (production mmol/l): 8.8 mmol/L
[5]; [13]
  Molar Ratios (Mole %) of SCFA's: Acetic acid: 35.3 Mole %
  Molar Ratios (Mole %) of SCFA's: Butyric acid: 47.0 Mole %
  Molar Ratios (Mole %) of SCFA's: Capronic acid: 13.5 Mole %
  Molar Ratios (Mole %) of SCFA's: Formic acid: 0.1 Mole %
  Molar Ratios (Mole %) of SCFA's: Heptanic acid: 1.2 Mole %
  Molar Ratios (Mole %) of SCFA's: Lactic acid: 3.0 Mole %
  Molar Ratios (Mole %) of SCFA's: Propionic acid: 0.5 Mole %
  Molar Ratios (Mole %) of SCFA's: Valeric acid: 1.6 Mole %
  Total SCFA (production mmol/l): 44.0 mmol/L
[5]; [14]
  Molar Ratios (Mole %) of SCFA's: Acetic acid: 37.7 Mole %
  Molar Ratios (Mole %) of SCFA's: Butyric acid: 38.7 Mole %
  Molar Ratios (Mole %) of SCFA's: Capronic acid: 15.2 Mole %
  Molar Ratios (Mole %) of SCFA's: Formic acid: 0.0 Mole %
  Molar Ratios (Mole %) of SCFA's: Heptanic acid: 1.6 Mole %
  Molar Ratios (Mole %) of SCFA's: Lactic acid: 8.6 Mole %
  Molar Ratios (Mole %) of SCFA's: Propionic acid: 0.0 Mole %
  Molar Ratios (Mole %) of SCFA's: Valeric acid: 1.2 Mole %
  Total SCFA (production mmol/l): 49.0 mmol/L
[5]; human faeces slurry, 1% D-tagatose
  time of adaptation in the in vitro incubation system: ≤ 48 h
[6]
  ingested D-tagatose absorbed in the small intestine: 15–20%
[7]; Control pigs (unadapted), colon
  Tagatose degradation: 1.1 g/h/kg digesta
[7]; Control pigs, caecum
  Mole % of SCFA after microbial fermentation of D-Tagatose: Acetate: 54.8 Mole %
  Mole % of SCFA after microbial fermentation of D-Tagatose: Butyrate: 18.2 Mole %
  Mole % of SCFA after microbial fermentation of D-Tagatose: Capronate: 2.0 Mole %
  Mole % of SCFA after microbial fermentation of D-Tagatose: Formate: 2.5 Mole %
  Mole % of SCFA after microbial fermentation of D-Tagatose: Heptanoate: 0.2 Mole %
  Mole % of SCFA after microbial fermentation of D-Tagatose: Propionate: 11.2 Mole %
  Mole % of SCFA after microbial fermentation of D-Tagatose: Valerate: 11.1 Mole %
  Tagatose degradation: 2.7 g/h/kg digesta
[7]; Control pigs, colon
  Mole % of SCFA after microbial fermentation of D-Tagatose: Acetate: 70.1 Mole %
  Mole % of SCFA after microbial fermentation of D-Tagatose: Butyrate: 16.7 Mole %
  Mole % of SCFA after microbial fermentation of D-Tagatose: Capronate: 4.8 Mole %
  Mole % of SCFA after microbial fermentation of D-Tagatose: Formate: 0.0 Mole %
  Mole % of SCFA after microbial fermentation of D-Tagatose: Heptanoate: 0.6 Mole %
  Mole % of SCFA after microbial fermentation of D-Tagatose: Propionate: 0.0 Mole %
  Mole % of SCFA after microbial fermentation of D-Tagatose: Valerate: 7.8 Mole %
[7]; D-tagatose pigs (adapted), colon
  Tagatose degradation: 15.3 g/h/kg digesta
[7]; D-tagatose pigs, caecum
  Mole % of SCFA after microbial fermentation of D-Tagatose: Acetate: 21.5 Mole %
  Mole % of SCFA after microbial fermentation of D-Tagatose: Butyrate: 21.8 Mole %
  Mole % of SCFA after microbial fermentation of D-Tagatose: Capronate: 1.9 Mole %
  Mole % of SCFA after microbial fermentation of D-Tagatose: Formate: 14.4 Mole %
  Mole % of SCFA after microbial fermentation of D-Tagatose: Heptanoate: 0.0 Mole %
  Mole % of SCFA after microbial fermentation of D-Tagatose: Propionate: 17.0 Mole %
  Mole % of SCFA after microbial fermentation of D-Tagatose: Valerate: 23.4 Mole %
  Tagatose degradation: 3.7 g/h/kg digesta
[7]; D-tagatose pigs, colon
  Mole % of SCFA after microbial fermentation of D-Tagatose: Acetate: 23.3 Mole %
  Mole % of SCFA after microbial fermentation of D-Tagatose: Butyrate: 46.3 Mole %
  Mole % of SCFA after microbial fermentation of D-Tagatose: Capronate: 6.8 Mole %
  Mole % of SCFA after microbial fermentation of D-Tagatose: Formate: 3.7 Mole %
  Mole % of SCFA after microbial fermentation of D-Tagatose: Heptanoate: 0.8 Mole %
  Mole % of SCFA after microbial fermentation of D-Tagatose: Propionate: 4.0 Mole %
  Mole % of SCFA after microbial fermentation of D-Tagatose: Valerate: 15.1 Mole %
[7]; colon content from unadapted pigs
  butyrate in SCFA profile: less than 20%

## O=C[C@H](O)[C@@H](O)[C@@H](O)[C@H](O)C(=O)O [galacturonic acid]
[8]
  proportion of butyrate on fermentation: high proportion of butyrate

## O=C(O)[C@H]1OC(O)[C@H](O)[C@@H](O)[C@@H]1O (some centres unmarked) [glucoronic acid]
[8]
  proportion of butyrate on fermentation: high proportion of butyrate

## OC[C@@H](O)[C@@H](O[C@H]1O[C@H](CO)[C@@H](O)[C@H](O)[C@H]1O)[C@H](O)[C@@H](O)CO [maltitol]
[8]; Rapaille and Bornet 1997
  butyrate on in vitro incubation: 10%

## OC[C@@H](O)[C@@H](O)[C@H](O)[C@@H](O)CO [sorbitol]
[8]
  proportion of butyrate on fermentation: high proportion of butyrate

Reference: US7202219B1, “Use of D-tagatose as a prebiotic food component” (priority 1998, dated 2007)
